Measurements reported in PubChem BioAssay AID2060488 (Molecular Pharmacology Branch, DTP, NCI, 2025).

Tested on: 966289-007-R4-J1-PDC complex spheroid viability
Experiment: Anticancer human tumor 966289-007-R4-J1-PDC patient-derived pancreatic adenocarcinoma cell line growth inhibition [GQUAD]
Conditions: for IC50: curve of first compound; for viability, T/C: stronger effect = lower value
How it was run: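 Multi-cell-type spheroids of tumor cells with HUVEC and mesenchymal stem cells, treated with drug combinations. Concentrations descend in half-log steps from near clinical Cmax, or from 10 microM where Cmax is unknown; viability read-out.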

[1] = second compound 0.0316 µM, first compound 0.0316 µM
[2] = second compound 0.0316 µM, first compound 0.1 µM
[3] = second compound 0.0316 µM, first compound 0.316 µM
[4] = second compound 0.0316 µM, first compound 1 µM
[5] = second compound 0.0316 µM, first compound 3.16 µM
[6] = second compound 0.0316 µM, first compound 10 µM
[7] = second compound 0.1 µM, first compound 0.0316 µM
[8] = second compound 0.1 µM, first compound 0.1 µM
[9] = second compound 0.1 µM, first compound 0.316 µM
[10] = second compound 0.1 µM, first compound 1 µM
[11] = second compound 0.1 µM, first compound 3.16 µM
[12] = second compound 0.1 µM, first compound 10 µM
[13] = second compound 0.316 µM, first compound 0.0316 µM
[14] = second compound 0.316 µM, first compound 0.1 µM
[15] = second compound 0.316 µM, first compound 0.316 µM
[16] = second compound 0.316 µM, first compound 1 µM
[17] = second compound 0.316 µM, first compound 3.16 µM
[18] = second compound 0.316 µM, first compound 10 µM
[19] = second compound 1 µM, first compound 0.0316 µM
[20] = second compound 1 µM, first compound 0.1 µM
[21] = second compound 1 µM, first compound 0.316 µM
[22] = second compound 1 µM, first compound 1 µM
[23] = second compound 1 µM, first compound 3.16 µM
[24] = second compound 1 µM, first compound 10 µM
[25] = second compound 3.16 µM, first compound 0.0316 µM
[26] = second compound 3.16 µM, first compound 0.1 µM
[27] = second compound 3.16 µM, first compound 0.316 µM
[28] = second compound 3.16 µM, first compound 1 µM
[29] = second compound 3.16 µM, first compound 3.16 µM
[30] = second compound 3.16 µM, first compound 10 µM
[31] = second compound 10 µM, first compound 0.0316 µM
[32] = second compound 10 µM, first compound 0.1 µM
[33] = second compound 10 µM, first compound 0.316 µM
[34] = second compound 10 µM, first compound 1 µM
[35] = second compound 10 µM, first compound 3.16 µM
[36] = second compound 10 µM, first compound 10 µM
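Further: spheroids exposed to the agents for seven days before readout.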
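Wherever viability, T/C is given: percent viability relative to DMSO vehicle control wells taken as 100%.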

SMILES: COc1ccc([C@@H](O)c2cc(-c3ncnc4cc(N5CCOCC5)ccc34)c(F)cc2Cl)nn1 + CN(C)c1ccc(Nc2c3ccc(NC(=O)CCN4CCCC4)cc3nc3cc(NC(=O)CCN4CCCC4)ccc23)cc1
- IC50 (second compound 0.0316 µM): > 10 µM
- IC50 (second compound 0.1 µM): > 10 µM
- IC50 (second compound 0.316 µM): > 10 µM
- IC50 (second compound 1 µM): > 10 µM
- IC50 (second compound 3.16 µM): > 10 µM
- IC50 (second compound 10 µM): 1.97 µM
- viability, T/C [1]: 104%
- viability, T/C [2]: 98.6%
- viability, T/C [3]: 104%
- viability, T/C [4]: 108%
- viability, T/C [5]: 110%
- viability, T/C [6]: 99.5%
- viability, T/C [7]: 101%
- viability, T/C [8]: 97.8%
- viability, T/C [9]: 103%
- viability, T/C [10]: 104%
- viability, T/C [11]: 109%
- viability, T/C [12]: 98.1%
- viability, T/C [13]: 99.8%
- viability, T/C [14]: 99.5%
- viability, T/C [15]: 106%
- viability, T/C [16]: 107%
- viability, T/C [17]: 107%
- viability, T/C [18]: 90.6%
- viability, T/C [19]: 101%
- viability, T/C [20]: 101%
- viability, T/C [21]: 107%
- viability, T/C [22]: 108%
- viability, T/C [23]: 111%
- viability, T/C [24]: 93%
- viability, T/C [25]: 101%
- viability, T/C [26]: 97.4%
- viability, T/C [27]: 108%
- viability, T/C [28]: 105%
- viability, T/C [29]: 109%
- viability, T/C [30]: 83.4%
- viability, T/C [31]: 103%
- viability, T/C [32]: 97.3%
- viability, T/C [33]: 101%
- viability, T/C [34]: 89.2%
- viability, T/C [35]: 22.6%
- viability, T/C [36]: 8.27%

SMILES: CC1COCCN1c1cc(C2(O)CC3CCC(C2)O3)c2cnn(-c3ccn[nH]3)c2n1 (stereo unspecified) + Cc1[nH]c2ccc(F)cc2c1-c1nc2c3cccnc3c3ncccc3c2[nH]1
- IC50 (second compound 0.0316 µM): 0.117 µM
- IC50 (second compound 0.1 µM): 0.112 µM
- IC50 (second compound 0.316 µM): 0.134 µM
- IC50 (second compound 1 µM): 0.131 µM
- IC50 (second compound 3.16 µM): 0.0609 µM
- IC50 (second compound 10 µM): 0.0506 µM
- viability, T/C [1]: 112%
- viability, T/C [2]: 55.6%
- viability, T/C [3]: 13.9%
- viability, T/C [4]: 5.11%
- viability, T/C [5]: 4.75%
- viability, T/C [6]: 3.95%
- viability, T/C [7]: 111%
- viability, T/C [8]: 53.8%
- viability, T/C [9]: 14%
- viability, T/C [10]: 5.55%
- viability, T/C [11]: 4.82%
- viability, T/C [12]: 4.44%
- viability, T/C [13]: 105%
- viability, T/C [14]: 63.2%
- viability, T/C [15]: 11.7%
- viability, T/C [16]: 5.9%
- viability, T/C [17]: 4.9%
- viability, T/C [18]: 4.84%
- viability, T/C [19]: 98.5%
- viability, T/C [20]: 61.1%
- viability, T/C [21]: 14.2%
- viability, T/C [22]: 5.99%
- viability, T/C [23]: 4.35%
- viability, T/C [24]: 4.34%
- viability, T/C [25]: 81.8%
- viability, T/C [26]: 25.1%
- viability, T/C [27]: 11.7%
- viability, T/C [28]: 5.99%
- viability, T/C [29]: 6%
- viability, T/C [30]: 4.42%
- viability, T/C [31]: 71.7%
- viability, T/C [32]: 18.7%
- viability, T/C [33]: 6.61%
- viability, T/C [34]: 5.67%
- viability, T/C [35]: 4.73%
- viability, T/C [36]: 4.11%

SMILES: COc1ncnc(C2CC2)c1-c1ncc2cnn(Cc3ccc(-c4nc(C(F)(F)F)cn4C(C)C)cc3)c2n1 + CN(C)c1ccc(Nc2c3ccc(NC(=O)CCN4CCCC4)cc3nc3cc(NC(=O)CCN4CCCC4)ccc23)cc1
- IC50 (second compound 0.0316 µM): > 10 µM
- IC50 (second compound 0.1 µM): > 10 µM
- IC50 (second compound 0.316 µM): > 10 µM
- IC50 (second compound 1 µM): > 10 µM
- IC50 (second compound 3.16 µM): > 10 µM
- IC50 (second compound 10 µM): 5.62 µM
- viability, T/C [1]: 103%
- viability, T/C [2]: 97%
- viability, T/C [3]: 108%
- viability, T/C [4]: 98.1%
- viability, T/C [5]: 100%
- viability, T/C [6]: 109%
- viability, T/C [7]: 103%
- viability, T/C [8]: 100%
- viability, T/C [9]: 105%
- viability, T/C [10]: 105%
- viability, T/C [11]: 92.7%
- viability, T/C [12]: 107%
- viability, T/C [13]: 103%
- viability, T/C [14]: 102%
- viability, T/C [15]: 105%
- viability, T/C [16]: 100%
- viability, T/C [17]: 92%
- viability, T/C [18]: 106%
- viability, T/C [19]: 93.9%
- viability, T/C [20]: 99.5%
- viability, T/C [21]: 104%
- viability, T/C [22]: 92.7%
- viability, T/C [23]: 98.3%
- viability, T/C [24]: 101%
- viability, T/C [25]: 102%
- viability, T/C [26]: 98.2%
- viability, T/C [27]: 106%
- viability, T/C [28]: 100%
- viability, T/C [29]: 106%
- viability, T/C [30]: 110%
- viability, T/C [31]: 102%
- viability, T/C [32]: 103%
- viability, T/C [33]: 109%
- viability, T/C [34]: 107%
- viability, T/C [35]: 91.7%
- viability, T/C [36]: 8.22%
